System: GUMC-403
Test: viability at highest tested concentration (max response) relative to DMSO (% of DMSO control); higher = less cytotoxic
Conditions: library / dose series: MIPE library, 11-point 1:3 dilution, 48 h
How it was run: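 In 1536-well plates, 700 GUMC-403 papilloma cells per well, taken from a patient and grown by conditional reprogramming, were seeded in 5 μL F + Y medium and incubated overnight at 37 °C. Compounds were pinned in at 23 nL in an 11-point 1:3 series, and left for 48 h before CellTiter-Glo luminescence was read on a ViewLux against vehicle (100%) and empty (0%) wells. Reported values are viability at the highest tested concentration relative to vehicle control.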

Nc1cc(c(cc1S(=O)(N)=O)S(N)(=O)=O)C(/Cl)=C(/Cl)Cl
viability (top concentration 46.1 µM): 105

N[C@@H](Cc1ccc(N(CCCl)CCCl)cc1)C(=O)O
viability (top concentration 46.1 µM): 143

OC(CN1CCC(Cc2ccc(F)cc2)CC1)c1ccc(Cl)cc1 (stereo not given)
viability (top concentration 46.1 µM): 103

CN1CCN(C2=Nc3cc(Cl)ccc3Nc3ccccc32)CC1
viability (top concentration 46.1 µM): 109

Oc1nc(-c2ccc(C(F)(F)F)cc2)nc2c1CSCC2
viability (top concentration 46.1 µM): 86.4

COC(=O)Nc1nc2cc(C(=O)c3cccs3)ccc2[nH]1
viability (top concentration 46.1 µM): 105

O=C(Nc1cccnc1)N1CCC(Cc2cccc(Oc3ccc(C(F)(F)F)cn3)c2)CC1
viability (top concentration 46.1 µM): 112

O=C([O-])C(O)Cc1ccc(O)c(O)c1 (stereo not given)
viability (top concentration 46.1 µM): 106

COc1ncnc(N[S+](=O)([O-])c2ccc(N)cc2)c1OC
viability (top concentration 46.1 µM): 137

CCN1\C=C(C(O)=O)/C(=O)C2=C1C=C(N3CCN(C)CC3)C(=C2)F
viability (top concentration 46.1 µM): 115

NC(=O)c1noc([C@H](CCCC2CCCCC2)CC(=O)NO)n1
viability (top concentration 46.1 µM): 118

Clc1ccccc1CN1CCc2sccc2C1
viability (top concentration 46.1 µM): 141

C=CCn1c(=O)c2cnc(Nc3ccc(N4CCN(C)CC4)cc3)nc2n1-c1cccc(C(C)(C)O)n1
viability (top concentration 46.1 µM): 63.1

C[Se]CCC(N)C(=O)O (stereo not given)
viability (top concentration 92.2 µM): 98

Cn1cnc2c1c(=O)[nH]c(=O)n2C
viability (top concentration 46.1 µM): 127

OC(c1cc(C(F)(F)F)nc2c(C(F)(F)F)cccc12)C1CCCCN1 (stereo not given)
viability (top concentration 46.1 µM): 97.9

COc1ccc(/C=C/C(=O)Nc2ccccc2C(=O)O)cc1OC
viability (top concentration 46.1 µM): 106

COc1cc(/C=C/C(=O)O)ccc1O
viability (top concentration 46.1 µM): 115

Cc1cn2cc(C(=O)N(C)CCO)cc(N[C@@H]3CCOc4cccc(C)c43)c2n1
viability (top concentration 46.1 µM): 144

C[C@H](NCc1ccc(OCc2cccc(F)c2)cc1)C(N)=O
viability (top concentration 46.1 µM): 80.3

CCc1cc2c(cc1N1CCC(N3CCOCC3)CC1)C(C)(C)c1[nH]c3cc(C#N)ccc3c1C2=O
viability (top concentration 46.1 µM): 97.8

Cc1ccc(Nc2cc(-c3cccc(N4C(=O)c5ccccc5C4=O)c3)ncn2)cc1N[S+](C)(=O)[O-]
viability (top concentration 46.1 µM): 117

Nc1ncnc2c1nc(Cl)n2[C@@H]1O[C@H](CO)[C@@H](O)[C@H]1O
viability (top concentration 46.1 µM): 46

C=C1/C(=C/C=C2\CCCC3(C)[C@@H]([C@H](C)/C=C/C=C/C(O)(CC)CC)CC[C@@H]23)C[C@@H](O)C[C@@H]1O (stereo not given in full)
viability (top concentration 46.1 µM): 148

CN1CCN(Cc2ccc(NC(=O)Nc3ccc(Oc4cc(NC(=O)C5CC5)ncn4)cc3)cc2C(F)(F)F)CC1
viability (top concentration 46.1 µM): 52.7

CCN1CCCC1CNC(=O)c1cc(S(=O)(=O)CC)c(N)cc1OC (stereo not given)
viability (top concentration 46.1 µM): 119

c1ccc(-c2oc3ncnc(NC[C@@H]4CCCO4)c3c2-c2ccccc2)cc1
viability (top concentration 46.1 µM): 100

Cc1cnc(-c2cc(N3CCN(C(=O)CC[S+](C)(=O)[O-])CC3)ncc2Cl)c(C)c1
viability (top concentration 46.1 µM): 72.3

CCN(CC)CCN1C(=O)\C(=N/C2=CC=CC=C12)CC3=CC=C(OC)C=C3
viability (top concentration 46.1 µM): 129

NC(=O)c1nnn(Cc2cc(Cl)c(C(=O)c3ccc(Cl)cc3)c(Cl)c2)c1N
viability (top concentration 46.1 µM): 90.7

Cc1cc(CN2CCN(c3c(Br)cnc4[nH]c(-c5ccc(N6CCN(C)CC6)cc5)nc34)CC2)no1
viability (top concentration 46.1 µM): 108

CC1(C)O[C@@H]2C[C@H]3[C@@H]4CCC5=CC(=O)C=C[C@]5(C)[C@@]4(F)[C@@H](O)C[C@]3(C)[C@]2(C(=O)CO)O1
viability (top concentration 46.1 µM): 117

CN(Cc1cnc2nc(N)nc(N)c2n1)c1ccc(C(=O)N[C@@H](CCC(=O)O)C(=O)O)cc1
viability (top concentration 46.1 µM): 111

C[C@]12COC(=O)C[C@@H]1CC[C@@H]1[C@@H]2CC[C@@]2(C)[C@H]1CC[C@]2(C)O
viability (top concentration 46.1 µM): 108

C[S+](=O)([O-])N(Cc1ccco1)CC(O)Cn1c2ccccc2c2ccccc21 (stereo not given)
viability (top concentration 46.1 µM): 90.4

CC[C@]12CC[C@H]3[C@@H](CCC/4=C/C(=O)CC[C@H]34)[C@@H]1CC[C@@]2(O)C#C
viability (top concentration 46.1 µM): 93.2

CO[C@H]1/C=C/O[C@@]2(C)Oc3c(C)c(O)c4c(O)c(c5c(nc6cc(C)ccn65)c4c3C2=O)NC(=O)/C(C)=C\C=C\[C@H](C)[C@H](O)[C@@H](C)[C@@H](O)[C@@H](C)[C@H](OC(C)=O)[C@@H]1C
viability (top concentration 46.1 µM): 133

O=C(O)CSCC(=O)NC1CCSC1=O (stereo not given)
viability (top concentration 46.1 µM): 139

COc1cc(OC)c(C(=O)CCCN2CCCC2)c(OC)c1
viability (top concentration 46.1 µM): 112

CN(C)c1cc(NC(=O)CNC(C)(C)C)c(O)c2c1C[C@H]1C[C@H]3[C@H](N(C)C)C(O)=C(C(N)=O)C(=O)[C@@]3(O)C(O)=C1C2=O
viability (top concentration 46.1 µM): 110

CCOC(=O)C/1=C(O)/C(=O)N(CC2=CC=CC=C2)C1
viability (top concentration 46.1 µM): 136

OC[C@H]1O[C@@H](O[C@@H]2O\C=C(/[C@H]3C\C=C(CO)/[C@@H]23)C(O)=O)[C@H](O)[C@@H](O)[C@@H]1O
viability (top concentration 46.1 µM): 124

CCOC(=O)/C=C/[C@H](C[C@@H]1CCNC1=O)NC(=O)[C@@H](CC(=O)[C@@H](NC(=O)c1cc(C)on1)C(C)C)Cc1ccc(F)cc1
viability (top concentration 46.1 µM): 142

Cc1c(C(=O)Nc2cccc(C(F)(F)F)c2)cc(-c2ccccc2)n1CCCN1CCOCC1
viability (top concentration 46.1 µM): 98.9

O=C(O)C1CCCN(CCC=C(c2ccccc2)c2ccccc2)C1 (stereo not given)
viability (top concentration 46.1 µM): 102

O=C1NC(=O)/C(=C/c2ccc3c(c2)OC(F)(F)O3)S1
viability (top concentration 46.1 µM): 94

Cc1cn[nH]c1
viability (top concentration 46.1 µM): 126

O=[N+]([O-])c1cn2c(n1)OC[C@@H](OCc1ccc(OC(F)(F)F)cc1)C2
viability (top concentration 46.1 µM): 111

CO[C@H]1C[C@@H]2CC[C@@H](C)[C@@](O)(O2)C(=O)C(=O)N2CCCC[C@H]2C(=O)O[C@H]([C@H](C)C[C@@H]2CC[C@@H](OCCO)[C@H](OC)C2)CC(=O)[C@H](C)/C=C(/C)[C@@H](O)[C@@H](OC)C(=O)[C@H](C)C[C@H](C)\C=C/C=C\C=C/1C
viability (top concentration 46.1 µM): 84.8

CN(C)CC/C=C1/c2ccccc2COc2ccc(CC(=O)O)cc21
viability (top concentration 46.1 µM): 100

CCOC(=O)N1CCN(/[N+]([O-])=N/Oc2ccc([N+](=O)[O-])cc2[N+](=O)[O-])CC1
viability (top concentration 46.1 µM): 118

Nc1n[nH]c2nnc(-c3c(-c4ccccc4)nn4ccccc34)cc12
viability (top concentration 46.1 µM): 88.7

CC(NC1=CC=CC=C1)C\2=C\C(=C/N3C(=O)\C=C(/N=C23)N4CCOCC4)C (stereo not given)
viability (top concentration 46.1 µM): 79.7

CN(C)CCOc1ccc(/C(=C(/CCCl)c2ccccc2)c2ccccc2)cc1
viability (top concentration 46.1 µM): 104

Cc1ccc2c(=O)c3cccc(CC(=O)O)c3oc2c1C
viability (top concentration 46.1 µM): 6.71

CCOP(=O)(OCC)C(C)NC(=O)N(CCCl)N=O (stereo not given)
viability (top concentration 46.1 µM): 111

CNC[C@H](O)[C@@H](O)[C@H](O)[C@H](O)CO
viability (top concentration 46.1 µM): 136

Nc1ccc([S+](=O)([O-])Nc2ccnn2-c2ccccc2)cc1
viability (top concentration 46.1 µM): 133

Cc1ccnc2c1NC(=O)c1cccnc1N2C1CC1
viability (top concentration 46.1 µM): 138

CC1(C)SCCN([S+](=O)([O-])c2ccc(OCC#CCO)cc2)[C@H]1C(=O)NO
viability (top concentration 46.1 µM): 103

Cc1c(C(=O)Nc2ccc(N3C[C@@H](C)O[C@@H](C)C3)nc2)cccc1-c1ccc(OC(F)(F)F)cc1
viability (top concentration 46.1 µM): 109

N#Cc1c(N(CC(=O)[O-])CC(=O)[O-])sc(C(=O)[O-])c1CC(=O)[O-].O.O.O.O.O.O.O.[Sr+2].[Sr+2]
viability (top concentration 46.1 µM): 112

COc1ccc(CC2SC(=O)NC2=O)cc1C(=O)NCc1ccc(C(F)(F)F)cc1 (stereo not given)
viability (top concentration 46.1 µM): 95.6

CC(C)[N+]1(C)C2CCC1CC(OC(=O)C(CO)c1ccccc1)C2.O.[Br-] (stereo not given)
viability (top concentration 46.1 µM): 109

O=C(O)c1cc(/N=N/c2ccc([S+](=O)([O-])Nc3ccccn3)cc2)ccc1O
viability (top concentration 46.1 µM): 121

O=C(O)c1ccc2c(c1)nc(Nc1cccc(Cl)c1)c1ccncc12
viability (top concentration 46.1 µM): 88.1

N[C@@H](Cc1ccc(O)c(O)c1)C(=O)O
viability (top concentration 46.1 µM): 133

CCN1CCCC1CNC(=O)c1cc([S+](N)(=O)[O-])ccc1OC (stereo not given)
viability (top concentration 46.1 µM): 134

Cc1nnc(C(C)C)n1[C@@H]1C[C@H]2CC[C@@H](C1)N2CC[C@H](NC(=O)C1CCC(F)(F)CC1)c1ccccc1
viability (top concentration 46.1 µM): 140

C=CC[N+]1([C@H]2C[C@H]3[C@@H]4CC[C@H]5C[C@H](O)[C@@H](N6CCOCC6)C[C@]5(C)[C@H]4CC[C@]3(C)[C@H]2OC(C)=O)CCCC1
viability (top concentration 46.1 µM): 108

CN1CCN2c3ncccc3Cc3ccccc3C2C1 (stereo not given)
viability (top concentration 46.1 µM): 101

COc1ccc(C[C@@H](C)[C@@H](C)Cc2ccc(OC)c(OC)c2)cc1OC
viability (top concentration 46.1 µM): 122

C[C@H]1CC2C3CCC/4=C/C(=O)/C=C\[C@]4(C)[C@@]3(F)[C@@H](O)C[C@]2(C)[C@@]1(O)C(=O)CO (stereo not given in full)
viability (top concentration 46.1 µM): 127

CC[C@@]1([C@@H]2O[C@@H]([C@H]3O[C@@](O)(CO)[C@H](C)C[C@@H]3C)C[C@@H]2C)CC[C@H]([C@]2(C)CC[C@]3(C[C@H](O)[C@@H](C)[C@@H]([C@@H](C)[C@@H](OC)[C@H](C)C(=O)[O-])O3)O2)O1
viability (top concentration 23 µM): 116

CNC(=O)c1cc(Oc2ccc(NC(=O)Nc3ccc(Cl)c(C(F)(F)F)c3)c(F)c2)ccn1
viability (top concentration 46.1 µM): 101

CCCC(CCC)C(=O)[O-]
viability (top concentration 46.1 µM): 88.8

CC1=CC=C(C=C1)\C2=N\C3=CC=C(Cl)C=C3OC2
viability (top concentration 46.1 µM): 128

C#CCN(C)[C@H](C)Cc1ccccc1
viability (top concentration 46.1 µM): 92.4

C[S+](=O)([O-])OCCCCO[S+](C)(=O)[O-]
viability (top concentration 46.1 µM): 134

CO[C@@H]1C(N(C)C(=O)c2ccccc2)C[C@H]2O[C@]1(C)n1c3ccccc3c3c4c(c5c6ccccc6n2c5c31)C(=O)NC4=O (stereo not given in full)
viability (top concentration 46.1 µM): 76.6

Oc1ccc(/C=C/c2cc(O)cc(O)c2)cc1
viability (top concentration 46.1 µM): 96.3

NC(=O)N/N=C/c1ccc([N+](=O)[O-])o1
viability (top concentration 46.1 µM): 135

c1ccc2c(Cc3c[nH]c4ccccc34)c[nH]c2c1
viability (top concentration 46.1 µM): 75.9

COc1ccc(CC2NCCc3cc(OC)c(OC)cc32)cc1OC (stereo not given)
viability (top concentration 46.1 µM): 91.3

C=C[C@H]1CN2CCC1C[C@@H]2[C@@H](O)c1ccnc2ccccc12 (stereo not given in full)
viability (top concentration 46.1 µM): 66.8
